Values quoted from earlier work, collected in patent US20230035389A1, “ANTIVIRAL COMPOSITION BASED ON EXTRACTS OF […] […] USEFUL FOR TREATING LESIONS CAUSED BY […] VIRUS” (PONTIFICIA UNIVERSIDAD CATOLICA DE CHILE, priority 2019, published 2023).

Tested on: herpes simplex virus
Conditions: topical, background statement

## Nc1nc2c(ncn2COCCO)c(=O)[nH]1 [Acyclovir]
  Reduction of the duration of herpetic lesions: 1.0 days
